# Reference: patent US8802597B2, “Herbicidal pyrimidines” (E I du Pont de Nemours and Company, priority 2003, dated 2014)
# Where two headings read alike, the source gives them in different places.
# Experiments:
# Experiment in all cases: Test A pre/postemergence
# Format in all cases: in vivo
# [1] = test system: giant foxtail (Setaria faberi); settings: for pest or weed control at 125 g/ha / pest or weed control at 500 g/ha: Setaria faberi, 240 h, read-out: Plant response rating, Foxtail, Giant
# Protocol: (§1) Seeds of barnyardgrass (Echinochloa crus-galli), crabgrass (Digitaria sanguinalis), giant foxtail (Setaria faberi), morningglory (Ipomoea spp.), redroot pigweed (Amaranthus retroflexus) and velvetleaf (Abutilon theophrasti) were planted into a blend of loam soil and sand and treated preemergence with a directed soil spray using test chemicals formulated in a non-phytotoxic solvent mixture which included a surfactant. At the same time these species were also treated with postemergence applications of test chemicals formulated in the same manner.
# (§2) Plants ranged in height from 2 to 10 cm and were in the 1- to 2-leaf stage for the postemergence treatment. Treated plants and untreated controls were maintained in a greenhouse for approximately ten days, after which time all treated plants were compared to untreated controls and visually evaluated for injury. Plant response ratings, summarized in Table A, are based on a 0 to 100 scale where 0 is no effect and 100 is complete control. A dash (-) response means no test results.
# [2] = test system: redroot pigweed (Amaranthus retroflexus); settings: for pest or weed control at 125 g/ha / pest or weed control at 500 g/ha: Amaranthus retroflexus, 240 h, read-out: Plant response rating, Pigweed
# Protocol: as §1, §2
# [3] = test system: morningglory (Ipomoea spp.); settings: for pest or weed control at 125 g/ha / pest or weed control at 500 g/ha: Ipomoea, 240 h, read-out: Plant response rating, Morningglory
# Protocol: as §1, §2
# [4] = test system: barnyardgrass (Echinochloa crus-galli); settings: for pest or weed control at 125 g/ha / pest or weed control at 500 g/ha: Echinochloa crus-galli, 240 h, read-out: Plant response rating, Barnyardgrass
# Protocol: as §1, §2
# [5] = test system: velvetleaf (Abutilon theophrasti); settings: for pest or weed control at 125 g/ha / pest or weed control at 500 g/ha: Abutilon theophrasti, 240 h, read-out: Plant response rating, Velvetleaf
# Protocol: as §1, §2
# [6] = test system: crabgrass (Digitaria sanguinalis); settings: for pest or weed control at 125 g/ha / pest or weed control at 500 g/ha: Digitaria sanguinalis, 240 h, read-out: Plant response rating, Crabgrass
# Protocol: as §1, §2
# [7] = Postemergence, 125 g ai/ha, 0 to 100 scale (0 no effect, 100 complete control)
# [8] = Postemergence, 500 g ai/ha, 0 to 100 scale (0 no effect, 100 complete control)
# [9] = Preemergence, 125 g ai/ha, 0 to 100 scale where 0 is no effect and 100 is complete control, approximately ten days
# [10] = Preemergence, 500 g ai/ha, 0 to 100 scale where 0 is no effect and 100 is complete control, approximately ten days
# [11] = post-emergence, Postemergence, 125 g ai/ha, 0 to 100 scale (0 no effect, 100 complete control)
# [12] = post-emergence, Postemergence, 500 g ai/ha, 0 to 100 scale (0 no effect, 100 complete control)
# [13] = pre-emergence, Preemergence, 125 g ai/ha, 0 to 100 scale where 0 is no effect and 100 is complete control, approximately ten days
# [14] = pre-emergence, Preemergence, 500 g ai/ha, 0 to 100 scale where 0 is no effect and 100 is complete control, approximately ten days
smiles,measurement,setting,value
Nc1nc(C2CC2)nc(C(=O)Oc2ccc(Cl)cc2)c1Cl [Compound 145],"Plant response rating, Foxtail, Giant",[1]; [7],20
same,"Plant response rating, Foxtail, Giant",[1]; [8],70
same,"Plant response rating, Foxtail, Giant",[1]; [9],0
same,"Plant response rating, Foxtail, Giant",[1]; [10],60
same,"Plant response rating, Pigweed",[2]; [7],80
same,"Plant response rating, Pigweed",[2]; [8],90
same,"Plant response rating, Pigweed",[2]; [9],65
same,"Plant response rating, Pigweed",[2]; [10],85
same,"Plant response rating, Morningglory",[3]; [7],80
same,"Plant response rating, Morningglory",[3]; [8],95
same,"Plant response rating, Morningglory",[3]; [9],75
same,"Plant response rating, Morningglory",[3]; [10],100
same,"Plant response rating, Barnyardgrass",[4]; [7],30
same,"Plant response rating, Barnyardgrass",[4]; [8],60
same,"Plant response rating, Barnyardgrass",[4]; [9],30
same,"Plant response rating, Barnyardgrass",[4]; [10],75
same,"Plant response rating, Velvetleaf",[5]; [7],75
same,"Plant response rating, Velvetleaf",[5]; [8],95
same,"Plant response rating, Velvetleaf",[5]; [9],70
same,"Plant response rating, Velvetleaf",[5]; [10],85
same,"Plant response rating, Crabgrass",[6]; [7],5
same,"Plant response rating, Crabgrass",[6]; [8],30
same,"Plant response rating, Crabgrass",[6]; [9],65
same,"Plant response rating, Crabgrass",[6]; [10],80
CCOC(=O)c1nc(-c2ccc3c(c2)OCO3)nc(N)c1Br [Compound 68],pest or weed control at 125 g/ha,[1]; [11],0%
same,pest or weed control at 500 g/ha,[1]; [12],0%
same,pest or weed control at 125 g/ha,[1]; [13],0%
same,pest or weed control at 500 g/ha,[1]; [14],0%
same,pest or weed control at 125 g/ha,[2]; [11],50%
same,pest or weed control at 500 g/ha,[2]; [12],55%
same,pest or weed control at 125 g/ha,[2]; [13],0%
same,pest or weed control at 500 g/ha,[2]; [14],15%
same,pest or weed control at 125 g/ha,[3]; [11],15%
same,pest or weed control at 500 g/ha,[3]; [12],35%
same,pest or weed control at 125 g/ha,[3]; [13],0%
same,pest or weed control at 500 g/ha,[3]; [14],0%
same,pest or weed control at 125 g/ha,[4]; [11],0%
same,pest or weed control at 500 g/ha,[4]; [12],0%
same,pest or weed control at 125 g/ha,[4]; [13],0%
same,pest or weed control at 500 g/ha,[4]; [14],0%
same,pest or weed control at 125 g/ha,[5]; [11],60%
same,pest or weed control at 500 g/ha,[5]; [12],60%
same,pest or weed control at 125 g/ha,[5]; [13],5%
same,pest or weed control at 500 g/ha,[5]; [14],10%
same,pest or weed control at 125 g/ha,[6]; [11],0%
same,pest or weed control at 500 g/ha,[6]; [12],0%
same,pest or weed control at 125 g/ha,[6]; [13],0%
same,pest or weed control at 500 g/ha,[6]; [14],0%
CC(C)=NOC(=O)c1nc(C2CC2)nc(N)c1Cl [Compound 146],"Plant response rating, Foxtail, Giant",[1]; [7],80
same,"Plant response rating, Foxtail, Giant",[1]; [8],85
same,"Plant response rating, Foxtail, Giant",[1]; [9],60
same,"Plant response rating, Foxtail, Giant",[1]; [10],90
same,"Plant response rating, Pigweed",[2]; [7],90
same,"Plant response rating, Pigweed",[2]; [8],95
same,"Plant response rating, Pigweed",[2]; [9],75
same,"Plant response rating, Pigweed",[2]; [10],95
same,"Plant response rating, Morningglory",[3]; [7],85
same,"Plant response rating, Morningglory",[3]; [8],100
same,"Plant response rating, Morningglory",[3]; [9],95
same,"Plant response rating, Morningglory",[3]; [10],100
same,"Plant response rating, Barnyardgrass",[4]; [7],70
same,"Plant response rating, Barnyardgrass",[4]; [8],90
same,"Plant response rating, Barnyardgrass",[4]; [9],65
same,"Plant response rating, Barnyardgrass",[4]; [10],90
same,"Plant response rating, Velvetleaf",[5]; [7],85
same,"Plant response rating, Velvetleaf",[5]; [8],100
same,"Plant response rating, Velvetleaf",[5]; [9],85
same,"Plant response rating, Velvetleaf",[5]; [10],100
same,"Plant response rating, Crabgrass",[6]; [7],20
same,"Plant response rating, Crabgrass",[6]; [8],80
same,"Plant response rating, Crabgrass",[6]; [9],35
same,"Plant response rating, Crabgrass",[6]; [10],75
COC(=O)c1nc(-c2ccc(SC)cc2)nc(N)c1Cl [Compound 121],"Plant response rating, Foxtail, Giant",[1]; [7],0
same,"Plant response rating, Foxtail, Giant",[1]; [8],0
same,"Plant response rating, Foxtail, Giant",[1]; [9],0
same,"Plant response rating, Foxtail, Giant",[1]; [10],0
same,"Plant response rating, Pigweed",[2]; [7],0
same,"Plant response rating, Pigweed",[2]; [8],0
same,"Plant response rating, Pigweed",[2]; [9],0
same,"Plant response rating, Pigweed",[2]; [10],0
same,"Plant response rating, Morningglory",[3]; [7],0
same,"Plant response rating, Morningglory",[3]; [8],10
same,"Plant response rating, Morningglory",[3]; [9],0
same,"Plant response rating, Morningglory",[3]; [10],0
same,"Plant response rating, Barnyardgrass",[4]; [7],0
same,"Plant response rating, Barnyardgrass",[4]; [8],5
same,"Plant response rating, Barnyardgrass",[4]; [9],0
same,"Plant response rating, Barnyardgrass",[4]; [10],0
same,"Plant response rating, Velvetleaf",[5]; [7],0
same,"Plant response rating, Velvetleaf",[5]; [8],0
same,"Plant response rating, Velvetleaf",[5]; [9],0
same,"Plant response rating, Velvetleaf",[5]; [10],0
same,"Plant response rating, Crabgrass",[6]; [7],0
same,"Plant response rating, Crabgrass",[6]; [8],0
same,"Plant response rating, Crabgrass",[6]; [9],0
same,"Plant response rating, Crabgrass",[6]; [10],0
COC(=O)c1nc(-c2ccc(S(C)(=O)=O)cc2)nc(N)c1Cl [Compound 122],"Plant response rating, Foxtail, Giant",[1]; [7],0
same,"Plant response rating, Foxtail, Giant",[1]; [8],0
same,"Plant response rating, Foxtail, Giant",[1]; [9],0
same,"Plant response rating, Foxtail, Giant",[1]; [10],0
same,"Plant response rating, Pigweed",[2]; [7],0
same,"Plant response rating, Pigweed",[2]; [8],0
same,"Plant response rating, Pigweed",[2]; [9],0
same,"Plant response rating, Pigweed",[2]; [10],0
same,"Plant response rating, Morningglory",[3]; [7],0
same,"Plant response rating, Morningglory",[3]; [8],0
same,"Plant response rating, Morningglory",[3]; [9],0
same,"Plant response rating, Morningglory",[3]; [10],0
same,"Plant response rating, Barnyardgrass",[4]; [7],0
same,"Plant response rating, Barnyardgrass",[4]; [8],0
same,"Plant response rating, Barnyardgrass",[4]; [9],0
same,"Plant response rating, Barnyardgrass",[4]; [10],0
same,"Plant response rating, Velvetleaf",[5]; [7],0
same,"Plant response rating, Velvetleaf",[5]; [8],0
same,"Plant response rating, Velvetleaf",[5]; [9],0
same,"Plant response rating, Velvetleaf",[5]; [10],0
same,"Plant response rating, Crabgrass",[6]; [7],0
same,"Plant response rating, Crabgrass",[6]; [8],0
same,"Plant response rating, Crabgrass",[6]; [9],0
same,"Plant response rating, Crabgrass",[6]; [10],0
